According to the NIST ThermoML archive (doi:10.1021/je0342825):

Experiment: xn = mol fraction of the nth substance listed
Details: 101.3 kPa, Liquid

CO [methanol] + CC(=O)O
x2 = 0
Details	mass density [kg/m3]	speed of sound [m/s]	viscosity [mPa·s]
293.15 K	791.9	1121	0.585
298.15 K	787.2	1104	0.545
303.15 K	782.48	1088	0.508

CC(=O)O [acetic acid] + CCO
Details	mass density, 293.15 K [kg/m3]	mass density, 298.15 K [kg/m3]	mass density, 303.15 K [kg/m3]	speed of sound, 293.15 K [m/s]	speed of sound, 298.15 K [m/s]	speed of sound, 303.15 K [m/s]	viscosity, 293.15 K [mPa·s]	viscosity, 298.15 K [mPa·s]	viscosity, 303.15 K [mPa·s]
x1 = 0.0493	803.5	799.15	794.78	1168	1151	1133	1.19	1.083	0.989
x1 = 0.1004	817.3	812.87	808.39	1173	1156	1139	1.195	1.089	0.994
x1 = 0.1992	844.8	840.2	835.58	1182	1165	1148	1.23	1.12	1.023
x1 = 0.2971	871.59	866.86	862.09	1190	1172	1155	1.276	1.162	1.06
x1 = 0.3962	898.37	893.5	888.6	1195	1177	1160	1.336	1.215	1.108
x1 = 0.4961	924.97	919.96	914.93	1197	1179	1162	1.383	1.258	1.152
x1 = 0.5981	951.75	946.59	941.42	1196	1178	1160	1.432	1.297	1.183
x1 = 0.7031	978.85	973.55	968.23	1192	1175	1157	1.444	1.31	1.198
x1 = 0.7973	1002.17	996.74	991.29	1184	1166	1149	1.419	1.291	1.181
x1 = 0.8979	1026.4	1020.84	1015.28	1171	1153	1136	1.338	1.225	1.126
x1 = 0.9515	1038.72	1033.11	1027.5	1161	1143	1126	1.275	1.172	1.084
x1 = 1	1049.3	1043.65	1038	1149	1132	1115	1.211	1.115	1.034

COC(C)=O [methyl ethanoate] + CC(=O)O
Details	mass density, 293.15 K [kg/m3]	mass density, 298.15 K [kg/m3]	mass density, 303.15 K [kg/m3]	speed of sound, 293.15 K [m/s]	speed of sound, 298.15 K [m/s]	speed of sound, 303.15 K [m/s]	viscosity, 293.15 K [mPa·s]	viscosity, 298.15 K [mPa·s]	viscosity, 303.15 K [mPa·s]
x2 = 0	933.56	926.98	920.34	1174	1151	1128	0.386	0.367	0.348
x2 = 0.0496	938.74	932.23	925.65	1177	1154	1131	0.401	0.381	0.362
x2 = 0.0956	943.44	936.98	930.46	1177	1155	1133	0.417	0.395	0.376
x2 = 0.195	953.14	946.77	940.34	1177	1155	1133	0.46	0.436	0.412
x2 = 0.3007	963.86	957.58	951.24	1176	1154	1133	0.506	0.48	0.453
x2 = 0.3902	973.23	967.02	960.77	1174	1153	1132	0.552	0.521	0.492
x2 = 0.4937	984.52	978.4	972.24	1172	1151	1131	0.617	0.58	0.547
x2 = 0.5953	996.15	990.1	984.03	1169	1149	1129	0.691	0.646	0.608
x2 = 0.6894	1007.51	1001.55	995.56	1166	1147	1127	0.775	0.725	0.68
x2 = 0.7943	1020.92	1015.05	1009.16	1162	1143	1124	0.894	0.834	0.782
x2 = 0.8987	1034.93	1029.17	1023.39	1156	1138	1120	1.037	0.962	0.896
x2 = 0.9502	1042.19	1036.49	1030.77	1153	1136	1118	1.12	1.037	0.964

CCOC(C)=O [ethyl acetate] + CC(=O)O
x2 = 0
Details	mass density [kg/m3]	speed of sound [m/s]	viscosity [mPa·s]
293.15 K	900.52	1163	0.452
298.15 K	894.43	1140	0.426
303.15 K	888.3	1118	0.403

CC(=O)O [acetic acid] + CCOC(C)=O
Details	mass density, 293.15 K [kg/m3]	mass density, 298.15 K [kg/m3]	mass density, 303.15 K [kg/m3]	speed of sound, 293.15 K [m/s]	speed of sound, 298.15 K [m/s]	speed of sound, 303.15 K [m/s]	viscosity, 293.15 K [mPa·s]	viscosity, 298.15 K [mPa·s]	viscosity, 303.15 K [mPa·s]
x1 = 0.0697	907.35	901.3	895.2	1165	1143	1121	0.473	0.446	0.422
x1 = 0.0988	910.56	904.53	898.44	1166	1144	1122	0.485	0.458	0.433
x1 = 0.196	920.61	914.62	908.59	1166	1144	1123	0.523	0.493	0.465
x1 = 0.2944	931.46	925.5	919.49	1165	1144	1123	0.561	0.528	0.498
x1 = 0.3968	943.68	937.74	931.77	1165	1143	1123	0.617	0.577	0.541
x1 = 0.5007	957.31	951.4	945.46	1163	1142	1122	0.668	0.627	0.589
x1 = 0.5967	971.28	965.4	959.5	1162	1141	1121	0.731	0.684	0.642
x1 = 0.7	987.79	981.94	976.09	1159	1140	1120	0.817	0.762	0.714
x1 = 0.7989	1005.47	999.66	993.85	1157	1137	1119	0.912	0.848	0.792
x1 = 0.8993	1025.8	1020.06	1014.32	1153	1135	1117	1.052	0.975	0.91
x1 = 0.9493	1037.09	1031.4	1025.69	1152	1134	1116	1.113	1.031	0.958
x1 = 1	1049.3	1043.65	1038	1149	1132	1115	1.211	1.115	1.034
